The record followed here is ChEMBL document CHEMBL3616471, “Synthesis and in vitro antitumor evaluation of betulin acid ester derivatives as novel apoptosis inducers” (Eur J Med Chem, 2015).

The subject of data set [1] is PC-3. Kind of data set: Cytotoxicity against human PC3 cells after 72 hrs by MTT assay. The note with it: PC-3, 72 h. In kind it is functional, cell-based. In general terms: Tetrazolium dyes change colour on reduction, which living cells bring about.
Data set [2] deals with Bcap37. Kind of data set: Cytotoxicity against human Bcap37 cells after 72 hrs by MTT assay. The class given is functional, cell-based. The note with it: Bcap37, 72 h.
In data set [3] the test system is MCF7. Kind of data set: Cytotoxicity against human MCF7 cells after 72 hrs by MTT assay. The class given is functional, cell-based. The note with it: MCF7, 72 h.
Data set [4] relates to A-375. The experiment in a line: Cytotoxicity against human A375 cells after 72 hrs by MTT assay. The class given is functional, cell-based. The note with it: A-375, 72 h.
The test system of data set [5] is MGC-803. The experiment in a line: Cytotoxicity against human MGC803 cells after 72 hrs by MTT assay. The class given is functional, cell-based. The conditions noted are these: MGC-803, 72 h.
A short description of data set [6]: Cytotoxicity against mouse NIH/3T3 cells after 72 hrs by MTT assay. In kind it is cell-based. The conditions noted are these: nih3t3, 72 h.
The test system of data set [7] is PC-3. Kind of data set: Selectivity index, ratio of IC50 for mouse NIH/3T3 cells to IC50 for human PC3 cells. In kind it is functional.
Data set [8] deals with A-375. Kind of data set: Selectivity index, ratio of IC50 for mouse NIH/3T3 cells to IC50 for human A375 cells. The class given is functional.
Data set [9] deals with Bcap37. The experiment in a line: Selectivity index, ratio of IC50 for mouse NIH/3T3 cells to IC50 for human Bcap37 cells. The class given is functional.
Data set [10] concerns MGC-803. Kind of data set: Selectivity index, ratio of IC50 for mouse NIH/3T3 cells to IC50 for human MGC803 cells. In kind it is functional.
Data set [11] has as its system MCF7. Kind of data set: Selectivity index, ratio of IC50 for mouse NIH/3T3 cells to IC50 for human MCF7 cells. The class given is functional.

A word on the IC50: it is the midpoint of a concentration-inhibition curve. Take `C=C(C)[C@@H]1CC[C@]2(COC(=O)c3ccccc3C(F)(F)F)CC[C@]3(C)[C@H](CC[C@@H]4[C@@]5(C)CC[C@H](OC(=O)c6ccccc6C(F)(F)F)C(C)(C)[C@@H]5CC[C@]43C)[C@@H]12`: the half-inhibitory concentration (IC50) in the data set on PC-3 [1], in the data set with Bcap37 [2], with MCF7 [3], in the data set with A-375 [4] and in the data set on MGC-803 [5] was greater than 100 µM in each case.

`C=C(C)[C@@H]1CC[C@]2(COC(=O)c3cccc([N+](=O)[O-])c3)CC[C@]3(C)[C@H](CC[C@@H]4[C@@]5(C)CC[C@H](OC(=O)c6cccc([N+](=O)[O-])c6)C(C)(C)[C@@H]5CC[C@]43C)[C@@H]12`: the half-inhibitory concentration (IC50) with PC-3 [1], in the data set on Bcap37 [2], in the data set on MCF7 [3], in the data set with A-375 [4] and in the data set on MGC-803 [5] was greater than 100 µM in each case.

On to `C=C(C)[C@@H]1CC[C@]2(COC(=O)c3ccc(F)cc3)CC[C@]3(C)[C@H](CC[C@@H]4[C@@]5(C)CC[C@H](O)C(C)(C)[C@@H]5CC[C@]43C)[C@@H]12`, for which the concentration for half-maximal inhibition (IC50) with PC-3 [1], with Bcap37 [2], in the data set with MCF7 [3], in the data set on A-375 [4] and in the data set on MGC-803 [5] was greater than 100 µM each time.

For `C=C(C)[C@@H]1CC[C@]2(COC(=O)c3cccc(Cl)c3)CC[C@]3(C)[C@H](CC[C@@H]4[C@@]5(C)CC[C@H](O)C(C)(C)[C@@H]5CC[C@]43C)[C@@H]12`, the IC50 in the data set on PC-3 [1], with Bcap37 [2], in the data set with MCF7 [3], with A-375 [4] and with MGC-803 [5] was greater than 100 µM throughout.

In the case of `C=C(C)[C@@H]1CC[C@]2(COC(=O)CCC(=O)O)CC[C@]3(C)[C@H](CC[C@@H]4[C@@]5(C)CC[C@H](O)C(C)(C)[C@@H]5CC[C@]43C)[C@@H]12`, in [6], the Activity result was “Non-toxic”. In addition, the IC50 was 12.5 µM in the data set with PC-3 [1]; 15.7 µM in the data set with Bcap37 [2]; 14.5 µM in the data set with MCF7 [3]; 17.9 µM in the data set on A-375 [4]; 11.3 µM with MGC-803 [5]. The “Ratio IC50” value in the data set on PC-3 [7] was determined as 5.83; in the data set with A-375 [8], 4.07; in the data set with Bcap37 [9], 4.64; in the data set on MGC-803 [10], 6.45; in the data set on MCF7 [11], 5.02.

In the case of `C=C(C)[C@@H]1CC[C@]2(COC(=O)c3ccccc3C)CC[C@]3(C)[C@H](CC[C@@H]4[C@@]5(C)CC[C@H](O)C(C)(C)[C@@H]5CC[C@]43C)[C@@H]12`, the 50% inhibitory concentration (IC50) in the data set with PC-3 [1], in the data set with Bcap37 [2], in the data set on MCF7 [3], in the data set with A-375 [4] and in the data set on MGC-803 [5] was greater than 100 µM each time.

`C=C(C)[C@@H]1CC[C@]2(COC(=O)c3ccccc3)CC[C@]3(C)[C@H](CC[C@@H]4[C@@]5(C)CC[C@H](O)C(C)(C)[C@@H]5CC[C@]43C)[C@@H]12`: the half-inhibitory concentration (IC50) in the data set on PC-3 [1], with Bcap37 [2], with MCF7 [3], with A-375 [4] and in the data set with MGC-803 [5] was greater than 100 µM each time.

As for `C=C(C)[C@@H]1CC[C@]2(COC(=O)Cc3ccc(Cl)cc3)CC[C@]3(C)[C@H](CC[C@@H]4[C@@]5(C)CC[C@H](O)C(C)(C)[C@@H]5CC[C@]43C)[C@@H]12`, the concentration for half-maximal inhibition (IC50) in the data set with PC-3 [1], with Bcap37 [2], in the data set with MCF7 [3], with A-375 [4] and with MGC-803 [5] was greater than 100 µM throughout.

As to `C=C(C)[C@@H]1CC[C@]2(COC(=O)/C=C/C(=O)N3CCCCC3)CC[C@]3(C)[C@H](CC[C@@H]4[C@@]5(C)CC[C@H](O)C(C)(C)[C@@H]5CC[C@]43C)[C@@H]12`, in data set [6], the Activity entry is recorded as “Toxic”. Moreover, the IC50 is 9.6 µM with PC-3 [1]; 7.4 µM in the data set on Bcap37 [2]; 6.3 µM in the data set with MCF7 [3]; 14.4 µM in the data set on A-375 [4]; 5.3 µM in the data set on MGC-803 [5]. Further, the “Ratio IC50” value with PC-3 [7], in the data set on A-375 [8], in the data set on Bcap37 [9], with MGC-803 [10] and in the data set on MCF7 [11] was greater than 3 in each case.

Regarding `C=C(C)[C@@H]1CC[C@]2(COC(=O)CCC(=O)N3CCCC3)CC[C@]3(C)[C@H](CC[C@@H]4[C@@]5(C)CC[C@H](O)C(C)(C)[C@@H]5CC[C@]43C)[C@@H]12`, the Activity result in [6] is “Non-toxic”. Besides, the IC50 with PC-3 [1] came to 8.3 µM; in the data set on Bcap37 [2] it was 7.9 µM; in the data set on MCF7 [3], 10.1 µM; in the data set on A-375 [4] it was 12.6 µM; with MGC-803 [5] it was 8.9 µM. Besides, the “Ratio IC50” value in the data set with PC-3 [7] amounted to 5.33; in the data set with A-375 [8], 3.52; in the data set on Bcap37 [9], 5.6; in the data set on MGC-803 [10], 4.97; in the data set with MCF7 [11], 4.38.

As for `C=C(C)[C@@H]1CC[C@]2(CO)CC[C@]3(C)[C@H](CC[C@@H]4[C@@]5(C)CC[C@H](O)C(C)(C)[C@@H]5CC[C@]43C)[C@@H]12` [BETULIN], the 50% inhibitory concentration (IC50) with PC-3 [1] worked out at 22.4 µM; in the data set with Bcap37 [2] it was 25.5 µM; with MCF7 [3], 19.3 µM; in the data set with A-375 [4] it was 28 µM; with MGC-803 [5] it was 30.2 µM.

Turning to `C=C(C)[C@@H]1CC[C@]2(COC(=O)c3ccccc3Cl)CC[C@]3(C)[C@H](CC[C@@H]4[C@@]5(C)CC[C@H](OC(=O)c6ccccc6Cl)C(C)(C)[C@@H]5CC[C@]43C)[C@@H]12`, the IC50 in the data set with PC-3 [1], in the data set with Bcap37 [2], with MCF7 [3], in the data set with A-375 [4] and with MGC-803 [5] was greater than 100 µM each time.

Consider `C=C(C)[C@@H]1CC[C@]2(COC(=O)CCC(=O)N3CCOCC3)CC[C@]3(C)[C@H](CC[C@@H]4[C@@]5(C)CC[C@H](O)C(C)(C)[C@@H]5CC[C@]43C)[C@@H]12`, for which, in data set [6], the Activity result is reported as “Non-toxic”. Moreover, the IC50 with PC-3 [1] came to 11.2 µM; with Bcap37 [2] it was 6.4 µM; in the data set with MCF7 [3], 11.5 µM; in the data set with A-375 [4] it was 18.5 µM; in the data set on MGC-803 [5] it was 9.2 µM. In addition, the “Ratio IC50” value was found to be 5.12 with PC-3 [7]; 3.1 in the data set with A-375 [8]; 8.97 in the data set with Bcap37 [9]; 6.23 in the data set on MGC-803 [10]; 4.99 with MCF7 [11].

On to `C=C(C)[C@@H]1CC[C@]2(COC(=O)c3ccccc3C(F)(F)F)CC[C@]3(C)[C@H](CC[C@@H]4[C@@]5(C)CC[C@H](O)C(C)(C)[C@@H]5CC[C@]43C)[C@@H]12`, for which the IC50 in the data set with PC-3 [1], with Bcap37 [2], in the data set with MCF7 [3], in the data set on A-375 [4] and with MGC-803 [5] was greater than 100 µM in each case.

As to `C=C(C)[C@@H]1CC[C@]2(COC(=O)/C=C/c3ccccc3)CC[C@]3(C)[C@H](CC[C@@H]4[C@@]5(C)CC[C@H](O)C(C)(C)[C@@H]5CC[C@]43C)[C@@H]12`, the IC50 in the data set on PC-3 [1], in the data set with Bcap37 [2], with MCF7 [3], in the data set with A-375 [4] and in the data set on MGC-803 [5] was greater than 100 µM throughout.

Take `C=C(C)[C@@H]1CC[C@]2(COC(=O)c3ccccc3)CC[C@]3(C)[C@H](CC[C@@H]4[C@@]5(C)CC[C@H](OC(=O)c6ccccc6)C(C)(C)[C@@H]5CC[C@]43C)[C@@H]12`: the concentration for half-maximal inhibition (IC50) in the data set on PC-3 [1], with Bcap37 [2], with MCF7 [3], in the data set on A-375 [4] and in the data set with MGC-803 [5] was greater than 100 µM each time.
